Measured values taken from ChEMBL document CHEMBL1150612, “Naturally occurring cembranes from an Australian sarcophyton species” (J Nat Prod, 2002).
Activity calls are given as the source filed them. The rule behind the calls is not given here.

How the values were obtained:
[1] = target: T1, Adenosine receptor A1 (Rattus norvegicus) (UniProt P25099); assay: Displacement of [3H]DPCPX from rat brain adenosine A1 receptor up to […]
T1 sequence (whole entry): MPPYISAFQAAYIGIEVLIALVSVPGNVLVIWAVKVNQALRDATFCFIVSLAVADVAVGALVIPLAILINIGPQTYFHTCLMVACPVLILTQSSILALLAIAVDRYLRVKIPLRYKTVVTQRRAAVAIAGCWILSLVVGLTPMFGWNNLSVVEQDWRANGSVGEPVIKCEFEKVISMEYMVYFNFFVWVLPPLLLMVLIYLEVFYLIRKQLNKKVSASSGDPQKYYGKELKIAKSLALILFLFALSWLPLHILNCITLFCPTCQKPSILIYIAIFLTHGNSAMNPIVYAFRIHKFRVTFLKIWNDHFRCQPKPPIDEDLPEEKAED

Adenosine receptor A1 = target: T2, Adenosine receptor A1 (Rattus norvegicus, UniProt P25099); assay: Displacement of [3H]DPCPX from rat brain adenosine A1 receptor
T2 sequence (P25099 whole entry): T1 sequence (whole entry)

SMILES | Activity [1] | IC50 (Adenosine receptor A1) [µM]
C=C1CC[C@@H]2O[C@@]2(C)CC[C@@H](C(C)C)/C=C/[C@](C)(O)CC[C@H]1O | inactive | 
CC(C)[C@H]1/C=C/[C@](C)(O)C/C=C/[C@@](C)(O)CC[C@@H]2O[C@@]2(C)CC1 |  | 300
CC(C)[C@H]1/C=C/[C@](C)(O)C/C=C/[C@](C)(O)CC[C@@H]2O[C@@]2(C)CC1 |  | 300
C=C1CC[C@@H]2O[C@@]2(C)CC[C@@H](C(C)C)/C=C/[C@](C)(O)CC[C@@H]1O | inactive | 
